The values below come from PMC1175024, “Chondrocytes, synoviocytes and dermal fibroblasts all express PH-20, a hyaluronidase active at neutral pH” (Arthritis Research & Therapy, 2005).

SMILES strings stand for the structures.

The experiment deals with T1, PH-20 (sperm adhesion molecule 1), immunopurified from human connective tissue cell layers (Homo sapiens, UniProt P38567).
T1 construct: gene SPAM1; 60-65 kDa; no tag
T1 sequence (P38567 36-490): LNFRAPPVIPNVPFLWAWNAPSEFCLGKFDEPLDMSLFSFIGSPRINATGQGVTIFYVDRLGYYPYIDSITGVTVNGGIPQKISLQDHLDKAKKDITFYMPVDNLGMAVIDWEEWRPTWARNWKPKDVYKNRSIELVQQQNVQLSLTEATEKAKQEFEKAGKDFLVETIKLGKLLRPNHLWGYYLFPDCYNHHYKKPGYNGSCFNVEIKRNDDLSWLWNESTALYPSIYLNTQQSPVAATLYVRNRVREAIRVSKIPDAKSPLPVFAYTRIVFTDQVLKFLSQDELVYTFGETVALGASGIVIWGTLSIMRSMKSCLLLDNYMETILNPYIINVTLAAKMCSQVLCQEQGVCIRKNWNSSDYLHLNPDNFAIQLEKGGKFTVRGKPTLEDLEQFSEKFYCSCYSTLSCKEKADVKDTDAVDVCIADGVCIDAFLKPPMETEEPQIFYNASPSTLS
Briefly: hyaluronan substrate gel electrophoresis (zymography). The format is biochemical. The settings on record: 5 ug/ml apigenin in DMSO; 0.15 M NaCl, 0.5 mM CaCl2, 7 mM 1,4-saccharolactone; pH 6.5; qualitative inhibition.

Regarding `O=c1cc(-c2ccc(O)cc2)oc2cc(O)cc(O)c12` [apigenin], the activity disappeared entry was “hyaluronidase activity purified from cell layers with the immunoaffinity gel (Api(-), right lane), both disappeared”.
